Measurements as given in patent publication US20080076729A1, “Interferon-beta gene therapy using an improved, regulated expression system” (Schering Aktiengesellachaft, priority 2005, published 2008).

System: JE
Assay: JE chemokine level in plasma of treated mice by ELISA
Format: in vivo
Conditions: bolus protein, each of three doses
Procedure: FIG. 7 illustrates induction levels of IP-10 (A) and JE (B) following i.v. or i.m. injection of murine IFN-β protein. C57BL/6 mice were administered 15, 150, or 500 ng of purified recombinant mIFN-β protein (specific activity=2.0×10^8 units/mg) by either i.v. (via tail vein) or i.m. injection (n=3 mice per group). The mice were bled at 2, 4, 6, 12, 24, and 48 hours post-injection, and the plasma levels of IP-10 and JE were measured by ELISA (R&D Systems).
FIG. 19 illustrates IP-10 and JE induction with a pBRES mIFN-β regulated expression system of the present invention.
• A. Development of mIFN-β Biomarkers: For higher sensitivity in detection of murine IFN-β (mIFN-β) activity in vivo, biomarkers for mIFN-β activity were identified in mice after injection of mIFN-β protein or mIFN-β encoded gene therapy vectors. […] In the present study, the expression of the MxA mouse homologue, Mx1, (see e.g., Hug, H et al. Mol Cell Biol 8: 3065-79; Pavlovic, J (1993) Ciba Found Symp 176: 233-43) isolated from murine peripheral blood monocytes (PBMC's) was used to detect the presence of biologically active mIFN-β. • A quantitative PCR/RT-PCR assay was developed to quantitate the levels of Mx1 mRNA in murine PBMC's. […] The samples were analyzed with an Mx1-specific probe/primer combination. […] The highest Mx1 expression levels were measured 2 hours after injection. […]

mIFN-β: purified recombinant murine interferon-beta protein
time by which plasma JE dropped to background: ≤ 24 h
